Results from patent US20260199564A1, “METHOD OF PREVENTING BLOOD COAGULATION AND DRUG-ELUTING IMPLANT FOR PERCUTANEOUS CORONARY INTERVENTION” (priority 2023, published 2026).

Columns and labels:
[1] = test system: ICAM-1; assay: LPS-induced ICAM-1 mRNA expression in HUVECs; format: cell-based, human; conditions: 1, 3, 10 μM for 1 h prior to LPS (1 μg/ml) stimulation for 24 h
Procedure: (§1) HUVECs were treated for 1 h with ginsenoside CK (1 μM, 3 μM, and 10 μM) prior to LPS (1 μg/ml) stimulation for 24 h. (A) ICAM-1 (B) VCAM-1 mRNA expression. Values are means±SEM of 3 independent experiments. Statistical significance assessed by one-way ANOVA followed by Scheffe post-hoc test for multiple comparisons (***P<0.01, *P<0.05 vs LPS).
(§2) Treatment of HUVECs with LPS (1 μg/ml) increased ICAM-1 and VCAM-1 mRNA expression. Twenty-four hours after LPS treatment, maximal expression of ICAM-1 and VCAM-1 was attained. To determine whether LPS-stimulated ICAM-1 and VCAM-1 mRNA expression is affected by ginsenoside CK, HUVECs were treated for 1 h with ginsenoside CK (1 μM, 3 μM, and 10 μM) prior to LPS (1 μg/ml) stimulation for 24 h.

[2] = molecular target: T1, hERG channel (Homo sapiens, UniProt Q12809); assay: Predictor hERG fluorescence polarization (FP) binding assay
T1 construct: purchased
Procedure: • a. Primary stock solutions of 3 mM CK and astemizole in 100% DMSO were diluted in 3-fold serial dilutions in the same solvent to obtain 16 different concentrations ranging from 3 mM to […]. These solutions were further diluted 25-fold with FP (fluorescence polarization) assay buffer and then transferred to the assay plate. • b. Each test solution in the assay plate was further diluted 4-fold with FP assay buffer. Predictor™ hERG membrane preparations were thawed at room temperature and sonicated. Predictor™ hERG Tracer Red (250 nM) was diluted to 4 nM with hERG FP assay buffer. All experiments were performed in FP assay buffer containing […].
• a. The FP assay was carried out using Predictor™ hERG Fluorescence Polarization Assay Kit. The binding assay was conducted following the manufacturer's recommended protocol with some modifications. Aliquots (5 μL) of each concentration of test article of reference were pipetted into the appropriate wells of a black 384-well micro-plate containing 10 μL of hERG membrane and 5 μL of 4 nM fluorescent tracer and covered with plate lid to protect the reagents exposed to from light. • b. The experiments were performed using triplicate wells for each concentration. Following a 3-hour incubation at room temperature, the microplates were read on a Tecan Infinite® F200 plate reader using polarized excitation filter setting at 535 nm and emission filter setting at 590 nm (25 and 20 nm bandwidths, respectively). Assay robustness was assessed by measuring 16 replicates positive control wells (containing 30 μM E-4031, known hERG channel blocker, in FP assay mixture) and negative control wells (no hERG channel blocker in FP assay mixture).
• a. To evaluate the robustness of the hERG assays, the signal-to-noise ratio was quantified by calculating Z′-factor for each assay. In statistics, the Z′-factor provides a way to evaluate the quality of the assay. […]. Z′-factor values were determined using the blank subtracted polarization values from 16 wells of • negative and positive controls using the formula of Zhang et al. […]

[3] = test system: HUVECs; assay: HUVEC cell viability by CCK-8 assay; format: cell-based, human; conditions: 1 μM, 3 μM, and 10 μM alone for 24 h
[4] = Releasing kinetics of ginsenoside CK from three-layer coated stent (CK DES), FIG. 2; format: physicochemical
[5] = test system: VCAM-1; assay: LPS-induced VCAM-1 mRNA expression in HUVECs; format: cell-based, human; conditions: 1, 3, 10 μM for 1 h prior to LPS (1 μg/ml) stimulation for 24 h
Procedure: as §1, §2

[6] = molecular target: T2, CYP1A2 (Homo sapiens, UniProt P05177); assay: Cytochrome P450 inhibition in human liver microsomes using LC-MS/MS, CYP1A2; format: in vitro ADME
T2 construct: with pooled human liver microsomes; from tissue; host or cells: pooled human liver microsomes
T2 sequence (P05177 1-516): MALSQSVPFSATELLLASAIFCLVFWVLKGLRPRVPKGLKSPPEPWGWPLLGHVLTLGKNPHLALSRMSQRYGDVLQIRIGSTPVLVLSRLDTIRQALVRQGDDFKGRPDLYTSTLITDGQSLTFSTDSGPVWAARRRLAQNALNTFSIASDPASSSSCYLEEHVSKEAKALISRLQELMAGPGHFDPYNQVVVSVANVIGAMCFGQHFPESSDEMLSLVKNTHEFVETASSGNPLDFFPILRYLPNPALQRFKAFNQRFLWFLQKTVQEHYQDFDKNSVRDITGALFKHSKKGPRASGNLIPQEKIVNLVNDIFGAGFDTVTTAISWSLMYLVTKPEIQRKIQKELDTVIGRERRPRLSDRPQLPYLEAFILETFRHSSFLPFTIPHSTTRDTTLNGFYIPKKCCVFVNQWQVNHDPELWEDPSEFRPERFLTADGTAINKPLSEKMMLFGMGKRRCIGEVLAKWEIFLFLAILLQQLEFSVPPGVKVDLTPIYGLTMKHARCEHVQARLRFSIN
Procedure: (§3) In IC50 shift experiments, CK (0.2 μL prepared in DMSO) was pre-incubated for 30 min at 37° C., at 8 different concentrations, with pooled human liver microsomes (0.1-1 mg/mL, depending on which enzyme was assessed) in the absence or presence of 1 mM NADPH in 100 μL of potassium phosphate buffer (100 mM, pH 7.4) and MgCl2 (2.5 mM). After the pre-incubation, a substrate mixture containing a probe substrate in 100 μL of potassium phosphate buffer (100 mM, pH 7.4), MgCl2 (2.5 mM), and NADPH (1 mM) was added for measurement of the corresponding P450 activities. Incubations were terminated by addition of 200 μL methanol. Samples were then extracted and centrifuged and the supernatant was subjected to validated LC-MS/MS analysis.

[7] = Releasing kinetics of ginsenoside CK from two-layer coated balloon (CK DEB), FIG. 4; format: physicochemical
[8] = molecular target: T3, CYP2D6 (Homo sapiens, UniProt P10635); assay: Cytochrome P450 inhibition in human liver microsomes using LC-MS/MS, CYP2D6; format: in vitro ADME
T3 construct: with pooled human liver microsomes; from tissue; host or cells: pooled human liver microsomes
Procedure: as §3

[9] = molecular target: T4, CYP2C19 (Homo sapiens, UniProt P33261); assay: Cytochrome P450 inhibition in human liver microsomes using LC-MS/MS, CYP2C19; format: in vitro ADME
T4 construct: with pooled human liver microsomes; from tissue; host or cells: pooled human liver microsomes
Procedure: as §3

[10] = 50 μM, 30 min pre-incubation in the presence or absence of NADPH

T1 sequence (Q12809 whole entry): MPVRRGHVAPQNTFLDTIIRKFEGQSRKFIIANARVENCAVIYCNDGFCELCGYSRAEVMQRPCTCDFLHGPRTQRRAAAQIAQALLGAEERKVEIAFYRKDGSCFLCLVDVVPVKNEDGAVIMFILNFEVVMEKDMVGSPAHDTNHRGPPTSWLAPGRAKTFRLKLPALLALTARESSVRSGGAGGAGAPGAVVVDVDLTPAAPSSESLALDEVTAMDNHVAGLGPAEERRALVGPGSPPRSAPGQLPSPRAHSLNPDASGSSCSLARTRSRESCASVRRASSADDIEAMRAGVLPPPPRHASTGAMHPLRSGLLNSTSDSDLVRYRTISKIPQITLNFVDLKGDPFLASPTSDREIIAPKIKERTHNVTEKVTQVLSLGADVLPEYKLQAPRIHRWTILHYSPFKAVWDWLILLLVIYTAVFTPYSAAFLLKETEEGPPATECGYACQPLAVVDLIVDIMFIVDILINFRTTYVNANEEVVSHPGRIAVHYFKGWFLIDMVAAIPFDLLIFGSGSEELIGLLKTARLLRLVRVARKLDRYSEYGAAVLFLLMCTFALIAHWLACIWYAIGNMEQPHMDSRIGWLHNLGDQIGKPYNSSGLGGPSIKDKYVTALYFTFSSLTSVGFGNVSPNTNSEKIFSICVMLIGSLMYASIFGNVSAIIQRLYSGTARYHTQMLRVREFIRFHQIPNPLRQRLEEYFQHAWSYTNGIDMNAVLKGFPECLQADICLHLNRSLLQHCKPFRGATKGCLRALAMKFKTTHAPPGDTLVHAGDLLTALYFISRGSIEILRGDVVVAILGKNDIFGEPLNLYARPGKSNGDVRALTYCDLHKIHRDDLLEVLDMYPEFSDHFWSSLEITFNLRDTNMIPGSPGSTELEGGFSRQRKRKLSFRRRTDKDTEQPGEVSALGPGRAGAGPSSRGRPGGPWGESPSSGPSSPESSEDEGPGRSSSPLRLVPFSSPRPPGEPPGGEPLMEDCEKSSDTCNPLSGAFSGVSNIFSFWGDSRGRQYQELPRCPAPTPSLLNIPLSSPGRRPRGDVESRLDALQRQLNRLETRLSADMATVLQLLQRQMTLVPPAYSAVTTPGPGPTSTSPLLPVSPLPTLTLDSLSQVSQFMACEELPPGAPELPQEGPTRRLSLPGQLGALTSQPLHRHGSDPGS
T3 sequence (P10635 whole entry): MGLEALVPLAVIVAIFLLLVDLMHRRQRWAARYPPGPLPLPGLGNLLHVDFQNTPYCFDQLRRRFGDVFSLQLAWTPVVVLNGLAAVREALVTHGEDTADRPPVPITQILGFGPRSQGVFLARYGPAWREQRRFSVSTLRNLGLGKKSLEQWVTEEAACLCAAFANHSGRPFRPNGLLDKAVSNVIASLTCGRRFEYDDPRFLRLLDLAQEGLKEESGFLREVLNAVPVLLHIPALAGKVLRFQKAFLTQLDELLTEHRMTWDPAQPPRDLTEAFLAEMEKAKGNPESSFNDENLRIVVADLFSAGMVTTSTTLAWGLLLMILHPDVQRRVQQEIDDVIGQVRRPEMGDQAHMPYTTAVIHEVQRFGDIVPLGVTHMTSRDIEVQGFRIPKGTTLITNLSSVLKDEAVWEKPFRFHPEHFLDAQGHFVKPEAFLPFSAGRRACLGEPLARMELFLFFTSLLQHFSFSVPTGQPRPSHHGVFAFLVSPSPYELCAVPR
T4 sequence (P33261 whole entry): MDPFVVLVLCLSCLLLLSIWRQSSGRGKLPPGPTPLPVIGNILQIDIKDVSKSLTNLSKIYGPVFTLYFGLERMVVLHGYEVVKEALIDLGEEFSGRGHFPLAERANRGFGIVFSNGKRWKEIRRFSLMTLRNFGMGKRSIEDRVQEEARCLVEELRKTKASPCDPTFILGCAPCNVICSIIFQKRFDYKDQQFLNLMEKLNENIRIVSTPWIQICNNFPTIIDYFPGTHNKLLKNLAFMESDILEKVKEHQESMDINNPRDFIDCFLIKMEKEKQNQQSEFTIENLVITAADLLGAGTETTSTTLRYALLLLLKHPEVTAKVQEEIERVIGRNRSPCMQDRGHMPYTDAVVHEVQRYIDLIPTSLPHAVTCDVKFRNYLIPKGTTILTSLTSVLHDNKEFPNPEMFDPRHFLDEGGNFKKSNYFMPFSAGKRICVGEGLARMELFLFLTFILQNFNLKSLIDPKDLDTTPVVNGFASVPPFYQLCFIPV

## CC(C)=CCC[C@](C)(O[C@@H]1O[C@H](CO)[C@@H](O)[C@H](O)[C@H]1O)[C@H]1CC[C@]2(C)[C@@H]1[C@H](O)C[C@@H]1[C@@]3(C)CC[C@H](O)C(C)(C)[C@@H]3CC[C@]12C [CK, Ginsenoside compound K]
[1]
  LPS-stimulated ICAM-1 mRNA expression: significantly inhibited
[2]; at 30 μM, triplicate measurements
  blocking effect for binding of tracer to the hERG membrane protein: minor blocking effect
[2]; classified from IC50
  risk classification of potency for hERG blocker: weak ligand
[2]; hERG FP assay, triplicate measurements
  IC50: > 30 µM
[3]
  cell viability: did not influence cell viability
[4]; after 90 days of drug release
  amount of residual drug in the stent: beyond the detection/quantitation limit
[4]; within one month
  drug released (initial burst): ~80%
[5]
  LPS-stimulated VCAM-1 mRNA expression: significantly inhibited
[6]; [10]
  inhibition at concentration of 50 μM: did not inhibit
[6]; pooled human liver microsomes, substrate Phenacetin
  IC50: > 50 µM
[7]; after 90 days of drug release
  amount of residual drug: beyond the detection/quantitation limit
[7]; within one month
  drug released (initial burst): ~80%
[8]; [10]
  inhibition at concentration of 50 μM: did not inhibit
[8]; pooled human liver microsomes, substrate Dextromethorphan
  IC50: > 50 µM
[9]; [10]
  inhibition at concentration of 50 μM: did not inhibit
[9]; pooled human liver microsomes, substrate S-Mephenytoin
  IC50: > 50 µM
